Results as given in article PMC11726677, “Eradication of Therapy-Resistant Cancer Stem Cells by Novel Telmisartan Derivatives” (Journal of Medicinal Chemistry, 2024).

How the values were obtained:
ABCB1 = assay: Jess Simple Western immunoassay of ABCB1 expression in K562-R cells; format: cell-based, human; details: 4 μM, 72 h
Description: (§1) Protein extracts were prepared as previously described.[44] Protein expression was determined using the capillary-based Jess Simple Western detection system (ProteinSimple, BioTechne) according to the manufacturer’s instructions at default settings. […] Horseradish peroxidase (HRP)-conjugated secondary antirabbit antibody, which was included in the Jess Detection Module kit, was used. Data analysis was conducted using Compass for Simple Western 4.0 software (ProteinSimple, BioTechne).

K562-R cells [1] = assay: Chemosensitizing: metabolic activity of K562-R cells cotreated with imatinib (modified MTT assay); format: cell-based, human; details: 72 h
Description: (§2) The potential reduction in cell viability was determined using the modified MTT assay.
conc. 10 to 0.5 μM) over 72 h (Figure 3D).
(§3) COS-7 (2 × 10^3 cells per well), IGROV-1 SP (2.5 × 10^3 cells per well), A2780 V SP (1.5 × 10^3 cells per well), PC3-DR (4 × 10^3 cells per well), and DU145-DR (3 × 10^3 cells per well) cells were seeded in 96-well plates in triplicates and after 24 h, the compounds were added at the respective concentrations. K562-R and K562 cells (2 × 10^4 cells per well), were treated with the compounds 2 h after seeding. […] A modified MTT colorimetric assay (EZ4U kit, Biomedica) was used to determine the metabolic activity of the tested cells, according to the manufacturer’s instructions. Absorbance was measured and the optical density of the respective FCS-containing medium and of the substrate was subtracted to exclude nonspecific staining. Metabolic activity in the absence of the compounds (CTR, DMSO) was set to 100% as reference.

[2] = target: ABCB1 transporter in K562-R cells (Homo sapiens, UniProt P08183); assay: Side population (SP) analysis, DCV staining, flow cytometry; details: 10 μM
STAT5 = assay: Jess Simple Western immunoassay of STAT5/pSTAT5 in K562-R cells; format: cell-based, human
Description: In the next step, the effects of the compounds (4 μM) on STAT5 in K562-R cells were examined.
as §1

K562-R cells [3] = assay: Metabolic activity of K562-R cells, compounds alone (modified MTT assay); format: cell-based, human; details: Homo sapiens, K-562R, 72 h; read-out: metabolic activity of K562-R cells, compound alone
Description: as §2
First, the compounds (10 μM) were applied alone to evaluate their effects per se.
as §3

K562 cells = assay: Metabolic activity of TKI-sensitive K562 cells (MTT assay); format: cell-based, human; details: 10 μM, 72 h, alone
Description: Selectivity for therapy-resistant K562-R cells can be assessed by comparing the results with TKI-sensitive K562 cells.
as §3

Sequence of ABCB1 transporter in K562-R cells (P08183 whole entry): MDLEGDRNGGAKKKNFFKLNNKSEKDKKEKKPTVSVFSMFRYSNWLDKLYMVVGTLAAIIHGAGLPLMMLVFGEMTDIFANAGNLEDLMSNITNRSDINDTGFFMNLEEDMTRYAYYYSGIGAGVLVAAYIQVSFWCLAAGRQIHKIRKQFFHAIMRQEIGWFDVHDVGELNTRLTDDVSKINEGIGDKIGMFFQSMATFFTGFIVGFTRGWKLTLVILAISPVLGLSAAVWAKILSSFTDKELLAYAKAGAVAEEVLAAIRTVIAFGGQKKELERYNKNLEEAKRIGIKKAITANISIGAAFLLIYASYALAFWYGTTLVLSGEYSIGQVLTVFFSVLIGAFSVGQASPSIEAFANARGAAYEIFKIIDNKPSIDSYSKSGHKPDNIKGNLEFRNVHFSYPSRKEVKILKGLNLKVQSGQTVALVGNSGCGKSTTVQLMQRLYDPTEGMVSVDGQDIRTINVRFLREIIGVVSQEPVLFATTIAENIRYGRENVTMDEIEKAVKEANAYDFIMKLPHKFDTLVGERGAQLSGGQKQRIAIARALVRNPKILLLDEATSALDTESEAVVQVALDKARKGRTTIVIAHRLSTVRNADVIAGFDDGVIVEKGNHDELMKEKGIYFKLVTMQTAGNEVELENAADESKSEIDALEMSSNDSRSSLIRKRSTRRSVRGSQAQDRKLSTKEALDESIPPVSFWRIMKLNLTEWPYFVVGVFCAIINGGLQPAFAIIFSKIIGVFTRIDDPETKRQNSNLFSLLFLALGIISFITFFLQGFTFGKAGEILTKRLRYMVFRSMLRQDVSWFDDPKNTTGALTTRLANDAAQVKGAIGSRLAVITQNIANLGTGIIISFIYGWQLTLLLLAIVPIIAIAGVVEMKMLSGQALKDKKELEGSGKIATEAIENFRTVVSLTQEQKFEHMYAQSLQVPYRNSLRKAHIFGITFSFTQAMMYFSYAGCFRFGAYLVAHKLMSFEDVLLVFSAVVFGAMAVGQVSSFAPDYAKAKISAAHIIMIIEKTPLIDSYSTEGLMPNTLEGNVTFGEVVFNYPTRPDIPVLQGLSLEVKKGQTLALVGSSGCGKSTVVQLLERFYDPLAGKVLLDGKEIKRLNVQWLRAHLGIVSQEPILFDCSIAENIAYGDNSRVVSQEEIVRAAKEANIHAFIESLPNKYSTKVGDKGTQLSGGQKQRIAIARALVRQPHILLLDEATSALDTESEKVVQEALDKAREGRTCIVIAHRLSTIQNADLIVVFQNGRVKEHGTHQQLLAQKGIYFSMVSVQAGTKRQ

Row | Compound | ABCB1 protein expression (ABCB1) | metabolic activity of K562-R cells, combination with imatinib (K562-R cells [1]; compound 8 μM + imatinib 1 μM) | metabolic activity of K562-R cells, combination with imatinib (K562-R cells [1]; compound 10 μM + imatinib 1 μM) | effect on SP phenotype / ABCB1 activity [2] | phosphorylation of STAT5 (STAT5; 4 μM + imatinib 1 μM, 6 h) | phosphorylation of STAT5 (STAT5; 4 μM alone, 72 h) | viability at 10 µM (K562-R cells [3]) | EC50 (K562-R cells [1]; K562-R, + imatinib 1 μM, read-out: SC50 (drug concentration eliciting 50% of the maximum sensitizing effect)) | metabolic activity of K562 cells (K562 cells) | relation of SP and NSP [2]
1 | CCCc1nc2ccccc2n1Cc1ccccc1C(=O)OC [1b, Methyl 2-((2-propyl-1H-benzo[d]imidazole-1-yl)methyl)benzoate] | none of the compounds abrogated the ABCB1 protein expression | 44–57% | 34–58% | had no significant impact on the SP | hardly triggered any change in the expression of pSTAT5 | prevented the activation of STAT5 | < 70% |  |  | 
2 | CCCc1nc2ccccc2n1Cc1ccccc1C(N)=O [1c, 2-((2-Propyl-1H-benzo[d]imidazole-1-yl)methyl)benzamide] |  |  | could not be increased |  |  |  | 75 to 80% |  |  | 
3 | CCCc1nc2ccccc2n1Cc1cccc(C(=O)OC)c1 [2b, Methyl 3-((2-propyl-1H-benzo[d]imidazole-1-yl)methyl)benzoate] |  | 44–57% | 34–58% | had no significant impact on the SP |  |  | < 70% |  |  | 
4 | CCCc1nc2ccccc2n1Cc1cccc(C(N)=O)c1 [2c, 3-((2-Propyl-1H-benzo[d]imidazole-1-yl)methyl)benzamide] |  |  | could not be increased |  |  |  |  |  |  | 
5 | CCCc1nc2ccccc2n1Cc1ccc(C(=O)OC)cc1 [3b, Methyl 4-((2-propyl-1H-benzo[d]imidazole-1-yl)methyl)benzoate] |  | 44–57% | 34–58% | had no significant impact on the SP |  |  |  |  |  | 
6 | CCCc1nc2ccccc2n1Cc1ccc(C(N)=O)cc1 [3c, 4-((2-Propyl-1H-benzo[d]imidazole-1-yl)methyl)benzamide] |  |  | could not be increased |  |  |  |  |  |  | 
7 | CCCc1nc2ccccc2n1Cc1ccc(-c2ccccc2C(=O)OC)cc1 [4b, Methyl 4′-((2-propyl-1H-benzo[d]imidazole-1-yl)methyl)-[1,1′-biphenyl]-2-carboxylate] | none of the compounds abrogated the ABCB1 protein expression |  | 8–24% | efficiently reduced the ABCB1 activity | hardly triggered any change in the expression of pSTAT5 | prevented the activation of STAT5 | < 70% | 1240 nM | ≥ 65% | about 50%
